Data published in patent US20200171159A1, “SELECTIVE DESTRUCTION OF CELLS” (priority 2017, published 2020).
“Also recorded” adds a separate entry of the source.

Legend:
H1975 cells [1] = test: Cell survival with LV-scFvCD24 and INr2 peptide, Example 3; assay type: cell-based, human; conditions: with peptide and LV-scFvCD24 particles
Method: The expression of CD24 in H1975 cells was evaluated by Flow cytometry. Briefly, approximately 1×10^6 cells were used in each experiment. Fluorescein isothiocyanate (FITC)—labeled humanized anti-human CD24 antibodies were used. Detection of bound antibodies was performed on a Cube6 and results were analyzed with the FCS express program. The lentivirus used was anti-CD24 scFv in an MOI of 30. The LentiBoost™ concentration used was 1:100 buffer A+1:100 buffer B (+spinoculation). The INr2 peptide was used in a concentration of 30 μM. FIG. 3A depicts the fluorescence (count) of the tested cells (Left—negative control, only secondary antibody; Right—duplicates of cells expressing CD24 after first and second-FITC antibodies). […] FIG. 3C is a schematic illustration of the of the experiment timeline. […] Particles were added on days 1, 4 and 7 as well.

H1975 cells [2] = test: Cell survival, enzymatic MTT assay, Example 2; conditions: with INS peptide and LV-scFvCD24 particles
Method: Cell line “H1975” cells were seeded in 96-well plates (2000 cells/well). […] Particles were added on day 2.

1975 lung cancer cells = test: Cell survival, enzymatic MTT assay, Example 5; assay type: cell-based, human; conditions: 1975 cells
[3] = test system: BT549 breast cancer cells; test: Cell survival, enzymatic MTT assay, Example 5; assay type: cell-based, human
HIV-1 = conditions: cited from earlier work
[4] = cited from earlier work
IN-Rev interaction = IN-Rev interaction (Human immunodeficiency virus type 1 group M subtype B, UniProt P04618); conditions: cited from earlier work
HIV-1 integrase = molecular target: T1, HIV-1 integrase (Human immunodeficiency virus type 1 group M subtype B, UniProt P12497); test: Integrase activity in test tubes (HIV-1 integrase assay kit); assay type: biochemical
T1 construct: purchased
Method: The ability of INS to increase the activity of HIV-1 integrase was tested using the HIV-1 integrase assay kit.

[5] = test system: DLD1, colorectal adenocarcinoma; test: Cell death of lentivirus-infected cells, fluorescent microscopy and MTT assay, Example 4; assay type: cell-based, human; conditions: DLD1 infected with CD24-targeted lentivirus; compared to the control peptide
Method: (§1) Integrase derived peptides (designated as INS) were synthesized as well as control peptide. Humanized Anti-CD24 antibody fragment (scFv) was engineered and fused to the lentivirus envelope. Cell death was measured qualitatively by using fluorescent microscopy and was quantified by the enzymatic MTT assay. Human colorectal cells (DLD1, colorectal adenocarcinoma, FIG. 4A) and breast cancer cells (MCF7, Human breast adenocarcinoma, FIG. 4B) were used for testing the potency of the lentiviral-based system.

IN = molecular target: T2, IN (Human immunodeficiency virus type 1 group M subtype B, UniProt P12497); conditions: listed as INS; cited from earlier work
T2 construct: Stimulation of the HIV-1 Integrase Enzymatic Activity and cDNA Integration by a Peptide Derived from the Integrase Protein

viral Integrase enzyme = viral Integrase enzyme (Human immunodeficiency virus type 1 group M subtype B, UniProt P12497); test: Integrase stimulation in viral infected cells, Example 4; assay type: cell-based
Method: as §1

[6] = test system: MCF7, Human breast adenocarcinoma; test: Cell death of lentivirus-infected cells, fluorescent microscopy and MTT assay, Example 4; assay type: cell-based; conditions: MCF7 infected with CD24-targeted lentivirus; compared to the control peptide
Method: as §1

IN-Rev interaction, sequence (P04618 whole entry, looked up): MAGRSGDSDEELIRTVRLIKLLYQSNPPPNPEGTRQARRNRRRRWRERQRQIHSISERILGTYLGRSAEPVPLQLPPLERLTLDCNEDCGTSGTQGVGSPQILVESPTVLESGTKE

Row | Molecule | effect of Raltegravir on the decrease in survival (H1975 cells [1]) | effect of Raltegravir on the decrease in survival (H1975 cells [2]) | effect of Raltegravir on the decrease in survival (1975 lung cancer cells) | effect of Raltegravir on the decrease in survival [3] | virus infectivity (HIV-1) | cell permeability [4] | IN-Rev interaction (IN-Rev interaction) | stimulation of the viral Integrase enzyme (HIV-1 integrase) | cell death [5] | direct effect on IN activity (IN) | stimulation of the viral Integrase enzyme (viral Integrase enzyme) | cell death [6]
1 | Cc1nnc(C(=O)NC(C)(C)c2nc(C(=O)NCc3ccc(F)cc3)c(O)c(=O)n2C)o1 [Raltegravir] | ameliorated | ameliorated | ameliorated | ameliorated |  |  |  |  |  |  |  | 
2 | WGSNFTSTTVKA [INr2] |  |  |  |  | stimulated virus infectivity | cell-permeable | abrogated |  |  |  |  | 
3 | WTAVQMAVFIHNFKRK [INS peptide] |  |  |  |  | stimulated virus infectivity | cell-permeable | abrogated | able to stimulate | Massive cell death | directly activates the free IN; also recorded: direct stimulatory effect | able to stimulate | Massive cell death
4 | WTHLEGKIILVAVHVA [INr1] |  |  |  |  | stimulated virus infectivity | cell-permeable | abrogated |  |  |  |  | 
